Experiments:
[1] = Absorbability examination, oral administration to rat; type: in vivo; settings: 50 mg/kg oral
Procedure: For 4-(5-phenyltetrazol-1-yl methyl)-morpholine (compound 1) and (5-phenyltetrazol-1-yl)methanol (compound 3), their sorbability were examined. Each compounds are suspended in carboxymethyl cellulose in given concentration to prepare sample for oral administration. Then each samples were administered in the ratio of 50 mg/kg to rat using sonde. Five Wister rats (male, 8 weeks aged, closed colony) were used every one group. At one hour, 2 hours, 6 hours and 24 hours after the administration of compound, blood was obtained. The obtained blood samples were immediately cetrifuged at 3000 rpm for 15 minutes to obtain the blood plasma and the concentration of the compound in the specimen was quantitated by HPLC. Briefly, to 100 μL of obtained blood plasma was added to 200 μL of acetonitrile, centrifuged at 12000 rpm for 10 minutes to obtain supernatant, deproteinized and served to HPLC. The measuring condition of HPLC was selected from suitable condition for each compounds to separate and quantify. For example, in case of 4-(5-phenyltetrazol-1-yl methyl)-morpholine (compound 1), separated with reverse-phase C18 column (4.6×250 mm, 5 μm: Waters), and then detected using ultraviolet detector (RF-10A: Shimazu Seisakusho) at 240 nm of wavelength to quantify. In mobile phase, the flow rate is 0.8 mL/min and solvent is water: acetonitrile.

[2] = Vitamin B6 (PLP; pyridoxal phosphate) trapping; type: biochemical; settings: 500 μM compound, 50 μM PLP, PBS
Procedure: To a solution of vitamin B6, the compound of this invention is added, and after a certain period of time, an amount of vitamin B6 remained is determined.
4-(5-phenyltetrazol-1-ylmethyl)-morpholine (Compound 1), 5-methyl-1-(5-phenyltetrazol-1-ylmethyl)-3a,6a-dihydro-1H-pyrrolo[3,4-d][1,2,3]triazol-4,6-dione (Compound 2) and (5-phenyltetrazol-1-yl)methanol (Compound 3) as well as aminoguanidine as the positive control were each dissolved in DMSO in a designed concentration to make a sample solution. DMSO itself was used as the negative control. In addition, pyridoxal phosphate (PLP) was dissolved in purified-water to make a designed concentration. PBS was added to each of the test compound, the positive control and the negative control, to make a final concentration of 500 μM. The PLP solution as above prepared was added to each of the resultant solution to make a final concentration of 50 μM for preparation of the PLP reaction solution. Using HPLC, the amount of PLP in the PLP reaction solution was determined after 0.1 and 10 hours, from which the PLP trapping amount of each test compound was ascertained.
The analysis of PLP using HPLC was carried out by separation with reverse-phase C18 column (4.6×250 mm, 5 μm; Waters) and by using a fluorescence detector (RF-10A; Shimazu Seisakusho; excitation wavelength, 300 nm and fluorescence wavelength, 400 nm). In the mobile phase, the flow rate was 0.6 mL/min and the concentration of buffer B was varied from 0% to 3% in 25 minutes (buffer A: 0.10% trifluoroacetic acid; buffer B: 80% acetonitrile containing 0.08% trifluoroacetic acid).

[3] = tested on: ischemia-reperfusion acute renal failure model; assay: Renal protective effect on ischemia-reperfusion acute renal failure model rat; type: in vivo; settings: 1 mg/kg once a day, 2 days
Procedure: This condition model is typical acute renal failure model. To prepare the model, operated on wistar rat (male, body weight 150 g, 6 weeks aged) to remove right kidney, and on the following day, renal artery of remaining left kidney was applied a ligature with clip under general anesthesia. […] After preparing the ischemia-reperfusion model, test compound (4-(5-phenyltetrazol-1-yl methyl)-morpholine (compound 1), 1 mg/kg body weight, once a day) was suspended in 0.5% carboxymethylcellulose. The suspension was coercively administered 2 days continuously, on third day kidney was obtained, and analysed pathologically (renal tubular stromal disorder score). In particular, the kidney was stained by PAS according to conventional method and the renal tubular stromal disorder was estimated for the presence or absence of renal tubular necrosis, renal tubular hypertrophy, renal tubular atrophia, renal tubular basal lamina thickening and cast in the sustained image of kidney. As well as biochemical analysis of blood was carried out (contract clinical analysis organization: SRL).

pentosidine formation = assay: AGEs (pentosidine) formation inhibiting effect in plasma from dialysis patients; type: biochemical, human
Procedure: Before dialysis, blood samples were obtained from non-diabetic volunteer dialysis patients with renal failure, and fresh heparinized plasma samples were prepared therefrom Pooled plasma obtained from several patients (n=3˜5) was served to the test. 4-(5-phenyltetrazol-1-ylmethyl)-morpholine (Compound 1), 5-methyl-1-(5-phenyltetrazol-1-ylmethyl)-3a,6a-dihydro-1H-pyrrolo[3,4-d][1,2,3]triazole-4,6-dione (Compound 2) or (5-phenyltetrazol-1-yl)methanol (Compound 3) adjusted to a designed concentration ([…]), in DMSO solution (100 μl), was added to the pooled plasma (900 μl) and incubated at 37° C. for 7 days in the presence of air. Then, the amount of pentosidine was measured to estimate the suppressive effect on the glycation of protein.
Measurement of the amount of pentosidine was made as follows: to each incubated sample (50 μL) was added an equal volume of 10% trichloroacetic acid, followed by centrifugation at 5000 g for 5 minutes; after removal of the supernatant, the pellet was washed by 5% trichloroacetic acid (300 μL); the pellet was dried under reduced pressure and then subjected to hydrolysis in 6N HCI solution (100 μL) at 110° C. under nitrogen atmosphere for 16 hours; to the hydrolysate, 5N NaOH (100 μL) and 0.5 M phosphate buffer (pH 7.4) (200 μL) were added, followed by filtration through a porefilter with a pore size of 0.5 μm and dilution with PBS. The concentration of free pentosidine was determined by reversed-phase HPLC using a fluorescence detector (RF-10A, Shimazu Seisakusho) (Miyata, T. et al.: Proc. Natl. Acad. Sci. USA, 93, 2353-2358, 1996). The effluent was monitored at 335/385 nm of excitation/emission wavelength. Synthetic pentosidine was used as the standard. The detection limit of pentosidine was 0.1 pmol/mg protein.
The inhibiting effect was estimated by comparing with positive control (aminoguanidine and pyridoxamine (Sigma)) reacted in the same manner as 4-(5-phenyltetrazol-1-yl-methyl)-morpholine (Compound 1), 5-methyl-1-(5-phenyltetrazol-1-ylmethyl)-3a,6a-dihydro-1H-pyrrolo[3,4-d][1,2,3]triazole-4,6-dione (Compound 2) and (5-phenyltetrazol-1-yl)methanol (Compound 3).

## c1ccc(-c2nnnn2CN2CCOCC2)cc1 [Compound 1, 4-(5-phenyltetrazol-1-ylmethyl)-morpholine]
[1]
  sorbability (plasma concentration after oral administration): good sorbability
[2]
  PLP trapping: none
[3]
  BUN: BUN reducing effect
Pentosidine formation; 5 mM, plasma from dialysis patients, 37° C., 7 days, DMSO negative control 2.960
  Pentosidine formation: 0.367 nmol/mL
Pentosidine formation; plasma from the patients with dialysis
  pentosidine formation suppression: suppressed remarkably
